Experimental data taken from ChEMBL document CHEMBL1155490, “Aaptamine, an alkaloid from the sponge Aaptos suberitoides, functions as a proteasome inhibitor” (Bioorg Med Chem Lett, 2010).
In brackets after ≈: the same amount, converted by molar mass.

How the values were obtained:
[1] = Inhibition of chymotrypsin like activity of partially purified rat liver proteasome by spectrofluorimetry; assay type: subcellular
[2] = Inhibition of trypsin like activity of partially purified rat liver proteasome by spectrofluorimetry; assay type: subcellular
[3] = Inhibition of caspase like activity of partially purified rat liver proteasome by spectrofluorimetry; assay type: subcellular
[4] = Inhibition of chymotrypsin-like activity of purified 20S proteasome from human erythrocyte
[5] = Inhibition of caspase-like activity of 20S proteasome in human erythrocyte by spectrofluorimetry
HeLa = experiment: Cytotoxicity against human HeLa cells after 3 days by MTT assay; assay type: functional, cell-based; conditions: 72 h

| IC50 [1] [µg/mL] | IC50 [2] [µg/mL] | IC50 [3] [µg/mL] | IC50 [4] [µg/mL] | IC50 [5] [µg/mL] | Structure (SMILES) | IC50 (HeLa) [µg/mL] |
| --- | --- | --- | --- | --- | --- | --- |
| 1.6 (≈ 7.01 µM) | 18 (≈ 78.9 µM) | 2.7 (≈ 11.8 µM) | 4.3 (≈ 18.8 µM) | 4.6 (≈ 20.2 µM) | COc1cc2ccnc3c2c(c1OC)NC=C3 [AAPTAMINE] | 15 (≈ 65.7 µM) |
| 2.1 (≈ 9.2 µM) | 10 (≈ 43.8 µM) | 2.4 (≈ 10.5 µM) | 1.7 (≈ 7.45 µM) | 1.7 (≈ 7.45 µM) | COc1cc2ccnc3c2c(c1O)N(C)C=C3 [ISOAAPTAMINE] | 3.1 (≈ 13.6 µM) |
